According to PubChem BioAssay AID248 (DTP/NCI, 2004):
Values joined by “and” are separate entries in the source; they are usually repeats but may differ in a detail not shown here. Identical values can stand only once. Toxic doses and inconclusive results are not listed. Rule as the data show it: active = T/C of 150% or more; inactive = T/C below 125%.

Test system: L1210 leukemia ip in BDF1 mice, survival T/C
Test: NCI In Vivo Anticancer Drug Screen. Data for tumor model L1210 Leukemia (intraperitoneal) in B6D2F1 (BDF1) mice
Conditions: endpoint: mean survival time, higher = longer survival
Summary of the method: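 Tumor was transplanted into mice, which were then dosed with test compound or vehicle alone. Survival was recorded for each group, and the treated figure was expressed relative to the control figure.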

[1] = dose: 25.0 mg/kg/injection, schedule: Q01DX009 (ip), vehicle: Klucel (hydroxypropylcellulose) (HPC)
[2] = dose: 50.0 mg/kg/injection, schedule: Q01DX009 (ip), vehicle: Klucel (hydroxypropylcellulose) (HPC)
[3] = dose: 100.0 mg/kg/injection, schedule: Q01DX009 (ip), vehicle: Klucel (hydroxypropylcellulose) (HPC)
[4] = dose: 200.0 mg/kg/injection, schedule: Q01DX009 (ip), vehicle: Klucel (hydroxypropylcellulose) (HPC)
[5] = dose: 100.0 mg/kg/injection, schedule: Q01DX009 (ip), vehicle: saline with Tween-80
[6] = dose: 200.0 mg/kg/injection, schedule: Q01DX009 (ip), vehicle: saline with Tween-80
[7] = dose: 400.0 mg/kg/injection, schedule: Q01DX009 (ip), vehicle: saline with Tween-80
[8] = dose: 100.0 mg/kg/injection, schedule: Q01DX001 (ip), vehicle: saline with Tween-80
[9] = dose: 200.0 mg/kg/injection, schedule: Q01DX001 (ip), vehicle: saline with Tween-80
[10] = dose: 400.0 mg/kg/injection, schedule: Q01DX001 (ip), vehicle: saline with Tween-80
[11] = dose: 100.0 mg/kg/injection, schedule: Q04DX003 (ip), vehicle: Klucel (hydroxypropylcellulose) (HPC)
[12] = dose: 200.0 mg/kg/injection, schedule: Q04DX003 (ip), vehicle: Klucel (hydroxypropylcellulose) (HPC)
[13] = dose: 400.0 mg/kg/injection, schedule: Q01DX009 (ip), vehicle: Klucel (hydroxypropylcellulose) (HPC)
[14] = dose: 400.0 mg/kg/injection, schedule: Q04DX003 (ip), vehicle: Klucel (hydroxypropylcellulose) (HPC)
[15] = dose: 100.0 mg/kg/injection, schedule: Q01DX001 (ip), vehicle: saline
[16] = dose: 200.0 mg/kg/injection, schedule: Q01DX001 (ip), vehicle: saline
[17] = dose: 50.0 mg/kg/injection, schedule: Q04DX003 (ip), vehicle: Klucel (hydroxypropylcellulose) (HPC)

Measured: T/C

CNC(=O)OCc1c(COC(=O)NC)c(-c2ccc(Cl)c(Cl)c2)n2c1CCC2
inactive: dose: 12.5 mg/kg/injection, schedule: Q01DX009 (ip), vehicle: Klucel (hydroxypropylcellulose) (HPC) 106 % of control | [1] 109 % of control | [2] 124 % of control

Cc1ccc(Cl)cc1NC(=O)Oc1cc(C)c(Cl)c(C)c1
inactive: [3] 94 % of control | [4] 96 % of control

C=CCCCCCCCCC(=O)NCC1CCCCO1 (stereo unspecified)
inactive: [5] 94 % of control | [6] 97 % of control | [7] 101 % of control

NC1=NC(c2ccccc2)C2=C(N1)C(=O)N(c1ccc(Br)cc1)C2 (stereo unspecified)
inactive: dose: 18.75 mg/kg/injection, schedule: Q01DX009 (ip), vehicle: saline 88 % of control | dose: 37.5 mg/kg/injection, schedule: Q01DX009 (ip), vehicle: saline 86 % of control | dose: 75.0 mg/kg/injection, schedule: Q01DX001 (ip), vehicle: saline 93 % of control | dose: 75.0 mg/kg/injection, schedule: Q01DX009 (ip), vehicle: saline 91 % of control | dose: 150.0 mg/kg/injection, schedule: Q01DX001 (ip), vehicle: saline 90 % of control | dose: 300.0 mg/kg/injection, schedule: Q01DX001 (ip), vehicle: saline 95 % of control

CCCCCCC(CCCCCC)c1ccccc1
inactive: [8] 90 % of control | [9] 93 % of control

CC1CC=CCC1COC(OCC1CC=CCC1C)C1CC=CCC1C (stereo unspecified)
inactive: dose: 100.0 mg/kg/injection, schedule: Q01DX009 (ip), vehicle: other 93 % of control | dose: 100.0 mg/kg/injection, schedule: Q04DX003 (ip), vehicle: other 100 % of control | dose: 200.0 mg/kg/injection, schedule: Q01DX009 (ip), vehicle: other 98 % of control | dose: 200.0 mg/kg/injection, schedule: Q04DX003 (ip), vehicle: other 98 % of control | dose: 400.0 mg/kg/injection, schedule: Q01DX009 (ip), vehicle: other 93 % of control | dose: 400.0 mg/kg/injection, schedule: Q04DX003 (ip), vehicle: other 96 % of control

COc1ccc2c(c1)CCC1C2CCC2C(O)CCCC21 (stereo unspecified)
inactive: dose: 50.0 mg/kg/injection, schedule: Q01DX001 (ip), vehicle: Klucel (hydroxypropylcellulose) (HPC) 95 % of control | dose: 100.0 mg/kg/injection, schedule: Q01DX001 (ip), vehicle: Klucel (hydroxypropylcellulose) (HPC) 93 % of control | dose: 200.0 mg/kg/injection, schedule: Q01DX001 (ip), vehicle: Klucel (hydroxypropylcellulose) (HPC) 87 % of control

Cc1nc2ccc(-c3ccccc3)cc2s1
inactive: [8] 111 % of control | [9] 108 % of control | [10] 103 % of control

CCOP1(=S)OCCO1
inactive: [11] 100 % of control | [12] 103 % of control

CC=C(C)c1ccccc1 (mixture of isomers)
inactive: dose: 50.0 mg/kg/injection, schedule: Q01DX009 (ip), vehicle: saline with Tween-80 118 % of control | [5] 123 % of control | [6] 94 % of control

Cc1ccc(OC(=O)/C=C/C(=O)Oc2ccc(C)cc2)cc1
inactive: [3] 97 % of control | [11] 105 % of control | [4] 95 % of control | [12] 98 % of control | [13] 88 % of control | [14] 108 % of control

CC(=O)c1ccccc1Cc1cccc2c(Cl)cccc12
inactive: [11] 95 % of control | [12] 100 % of control | [14] 88 % of control

COc1cccc(NC(=S)Nc2ccc(O)cc2)c1
inactive: dose: 100.0 mg/kg/injection, schedule: Q04DX002 (ip), vehicle: Klucel (hydroxypropylcellulose) (HPC) 99 % of control | dose: 200.0 mg/kg/injection, schedule: Q04DX002 (ip), vehicle: Klucel (hydroxypropylcellulose) (HPC) 101 % of control | dose: 400.0 mg/kg/injection, schedule: Q04DX002 (ip), vehicle: Klucel (hydroxypropylcellulose) (HPC) 104 % of control

COCc1cc(C(C)(C)C)c(O)c(C(C)(C)C)c1
inactive: [3] 94 % of control | [11] 98 % of control | [4] 89 % of control | [12] 96 % of control | [13] 89 % of control | [14] 88 % of control

OC(CCN1CCCCC1)(c1cccs1)C(O)(CCN1CCCCC1)c1cccs1 (stereo unspecified)
inactive: [15] 97 % of control | [16] 90 % of control

CCOC(=O)CNC(N)=O
inactive: dose: 100.0 mg/kg/injection, schedule: Q01DX009 (ip), vehicle: saline 96 % of control | dose: 200.0 mg/kg/injection, schedule: Q01DX009 (ip), vehicle: saline 107 % of control | dose: 400.0 mg/kg/injection, schedule: Q01DX009 (ip), vehicle: saline 96 % of control

CNC(=O)OCCOc1ccccc1
inactive: [8] 109 % of control | [5] 105 % of control and 116 % of control | dose: 100.0 mg/kg/injection, schedule: Q04DX002 (ip), vehicle: saline with Tween-80 97 % of control and 89 % of control | [9] 108 % of control | [6] 96 % of control and 101 % of control | dose: 200.0 mg/kg/injection, schedule: Q04DX002 (ip), vehicle: saline with Tween-80 94 % of control and 90 % of control | [10] 111 % of control | [7] 108 % of control and 110 % of control | dose: 400.0 mg/kg/injection, schedule: Q04DX002 (ip), vehicle: saline with Tween-80 119 % of control and 87 % of control

COc1cc(/C=N/NC(=O)CC(C)O)ccc1O (stereo unspecified)
inactive: [15] 104 % of control | [16] 102 % of control | dose: 400.0 mg/kg/injection, schedule: Q01DX001 (ip), vehicle: saline 104 % of control

NC1=C(Cl)C(=O)c2ccccc2C1=O
inactive: dose: 25.0 mg/kg/injection, schedule: Q04DX003 (ip), vehicle: saline with Tween-80 100 % of control | dose: 50.0 mg/kg/injection, schedule: Q04DX003 (ip), vehicle: saline with Tween-80 101 % of control | dose: 100.0 mg/kg/injection, schedule: Q04DX003 (ip), vehicle: saline with Tween-80 90 % of control

IC1CCC(I)C2CCC1O2 (stereo unspecified) (tested in a mixture with another compound)
inactive: [17] 106 % of control | [3] 106 % of control | [11] 101 % of control | [4] 104 % of control | [12] 98 % of control and 100 % of control | [13] 96 % of control | [14] 100 % of control

COc1c(Cl)cc(Cl)cc1Cl
inactive: dose: 100.0 mg/kg/injection, schedule: Q01DX009 (ip), vehicle: saline sonified 96 % of control | [11] 101 % of control | dose: 200.0 mg/kg/injection, schedule: Q01DX009 (ip), vehicle: saline sonified 107 % of control | [12] 98 % of control | dose: 400.0 mg/kg/injection, schedule: Q01DX009 (ip), vehicle: saline sonified 97 % of control | [14] 104 % of control

Cc1cccc(NC(=O)Nc2cccc3ccccc23)c1C
inactive: [1] 92 % of control | dose: 25.0 mg/kg/injection, schedule: Q04DX003 (ip), vehicle: Klucel (hydroxypropylcellulose) (HPC) 94 % of control | [2] 96 % of control | [17] 89 % of control | [3] 92 % of control | [11] 91 % of control | [12] 93 % of control | [14] 91 % of control

CCS(=O)(=O)c1ccc(C(=O)N=[N+]=[N-])cc1
inactive: dose: 100.0 mg/kg/injection, schedule: Q01DX001 (ip), vehicle: carboxymethylcellulose (CMC) 92 % of control | dose: 200.0 mg/kg/injection, schedule: Q01DX001 (ip), vehicle: carboxymethylcellulose (CMC) 97 % of control | dose: 400.0 mg/kg/injection, schedule: Q01DX001 (ip), vehicle: carboxymethylcellulose (CMC) 105 % of control

COC(=O)c1ncn(/C=C/c2ccccc2)c1C(=O)O
inactive: [11] 92 % of control | [12] 91 % of control | [14] 87 % of control

Cc1ccc2[nH]c(C)cc(=O)c2c1
inactive: dose: 2.5 mg/kg/injection, schedule: Q01DX009 (ip), vehicle: saline 109 % of control | dose: 5.0 mg/kg/injection, schedule: Q01DX009 (ip), vehicle: saline 95 % of control | dose: 10.0 mg/kg/injection, schedule: Q01DX001 (ip), vehicle: saline 104 % of control | dose: 10.0 mg/kg/injection, schedule: Q01DX009 (ip), vehicle: saline 106 % of control | dose: 20.0 mg/kg/injection, schedule: Q01DX001 (ip), vehicle: saline 101 % of control | dose: 40.0 mg/kg/injection, schedule: Q01DX001 (ip), vehicle: saline 98 % of control

O=S(=O)(NC1CCc2ccccc21)c1ccccc1 (stereo unspecified)
inactive: [5] 95 % of control | [6] 90 % of control
